Measured values from PubChem BioAssay AID504322 (Emory University Molecular Libraries Screening Center, 2011).
Activity calls are given as the source filed them. No rule for the calls is given here.

Test system: CHOP reporter cell assay, percent of control
Experiment: CHOP reporter inhibitor potency, dose response, cell-based (AID 504322);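 also: CHO cells carrying a CHOP reporter stimulated with tunicamycin to induce ER stress; potency is for inhibition of the stress-induced reporter signal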

SMILES	IC50
Cc1cccc(NC(=O)CSc2nc(C)c(CC(=O)c3ccc(Br)cc3)c(C)c2C#N)c1C	5.95 µM (inactive)
NC(=O)c1cc(-c2ccccc2)nc(N2CCCCCC2)n1	9.62 µM (inactive)
CN1CCN(CC(=O)N2CCn3c4c(c5cc(C6CCCCC6)ccc53)CCCC42)CC1 (stereo not drawn)	9.6 µM (inactive)
O=C(Nc1cccc(-c2nc3ncccc3o2)c1)c1sc2ccccc2c1Cl	2.47 µM
CCN1CCN(Cc2ccc(NC(=O)c3ccc(C)c(NC(=O)c4c[nH]c5cc(C(F)(F)F)ccc5c4=O)c3)cc2C(F)(F)F)CC1	4.74 µM
O=C(NCc1nc(-c2ccc(C(F)(F)F)cc2)no1)Nc1cc(Cl)cc(Cl)c1	4.78 µM
Nc1ccc2oc(-c3cc(Br)ccc3Cl)nc2c1	0.71 µM
O=C(CCl)Nc1cc(-c2ccccc2)nn1-c1ccccc1	9.78 µM (inactive)
Cc1ccc2c(C)nc(Nc3nc(CSc4nc5ccccc5[nH]4)cc(=O)[nH]3)nc2c1	3.8 µM (inactive)
NC(=O)c1ccc(C(F)(F)F)n(Cc2ccc(Cl)cc2)c1=O	9.05 µM (inactive)
CCOC(=O)c1c(N)sc(C(O)(C(F)(F)F)C(F)(F)F)c1-c1ccc(Cl)cc1	9.37 µM (inactive)
Nc1c(N(C(=O)Nc2ccc(Cl)c(Cl)c2)C2CCCC2)c(=O)[nH]c(=O)n1Cc1ccccc1	> 10 µM (inactive)
COc1ccc(-c2nc(NC(=O)Cn3ccc(C(F)(F)F)n3)sc2C)cc1	> 10 µM (inactive)
O=C(Nc1cc(Cl)ccc1O)c1cc2n(n1)C(C(F)(F)F)CC(c1ccc3c(c1)OCO3)N2 (stereo not drawn)	1.97 µM
CCCNC(=O)c1nnsc1S(=O)c1ccc(Cl)cc1 (stereo not drawn)	5.55 µM (inactive)
CSc1nc(-c2ccccc2)nc(C(Cl)Cl)n1	5.1 µM
O=c1c(Br)c(Br)cnn1-c1ccccc1	4.97 µM (inactive)
CCCC(NCC(O)COc1ccc(-c2ccccc2)cc1)c1ccccc1 (stereo not drawn)	9.3 µM (inactive)
O=C(NCc1ccccc1)c1cc(-c2ccncc2)nc2ccc(S(=O)(=O)N3CCOCC3)cc12	9.8 µM (inactive)
Nc1c(C(=O)Nc2nc3ccccc3s2)sc2nc(-c3cccs3)ccc12	7.44 µM (inactive)
O=C(CCl)N(c1ccc(Cl)cc1)c1c[nH]c2ccccc12	9.58 µM (inactive)
CCOC(=O)N=Nc1c2ccccc2c2nc3no[nH]c3nc12	4.21 µM
O=c1[nH]c(=O)n(Cc2ccco2)c2c1C(C(F)(F)F)(C(F)(F)F)N=C(c1ccc(F)cc1)N2	6.5 µM (inactive)
Oc1ccc(/C=N/Nc2nc(-c3ccc(Cl)cc3)cc(C(F)(F)F)n2)cc1	5.8 µM (inactive)

SMILES	IC50
O=C(ONc1ccc(N=NC(=O)c2ccccc2O)cc1)c1ccccc1	> 10 µM (inactive)
O=C(O)c1cccc(COc2ccccc2Cl)c1	6.05 µM (inactive)
COc1ccc(C2CC(c3c(-c4ccccc4)c4cc(Cl)ccc4[nH]c3=O)=NN2S(C)(=O)=O)cc1OC (stereo not drawn)	8.04 µM (inactive)
O=C(Nc1ccccc1Cl)/C(Cl)=C(\Cl)S(=O)c1ccccc1 (stereo not drawn)	2.4 µM
O=C1CC(c2ccco2)CC(O)=C1C=Nc1ccccc1-c1ccccc1 (stereo not drawn)	2.84 µM (inactive)
Cc1cc(/C=N/Nc2nc(N)ncc2[N+](=O)[O-])c(C)n1-c1cccc(C(F)(F)F)c1	9.14 µM (inactive)
Cc1ccc2nc(-c3cc(-c4ccccc4)no3)cn2c1	9.74 µM (inactive)
Cc1ccc(-c2cc3c(nn2)-c2ccccc2C3=O)cc1	6.03 µM (inactive)
Cc1ccc(-c2nc(-c3ccccn3)no2)cc1	4.47 µM
Cc1cc(-c2n[nH]c(=S)n2/N=C/C(Br)=C/c2ccccc2)n[nH]1	> 10 µM (inactive)
CCCCCCn1c(N2CCC(C)CC2)nc2c1c(=O)[nH]c(=O)n2C	5.4 µM (inactive)
Cc1ccc(NC(=O)c2ccc(Nc3c([N+](=O)[O-])cc([N+](=O)[O-])cc3[N+](=O)[O-])cc2)cc1	1.81 µM
CCCCc1nc2ccccc2c(=O)n1NC(=O)c1c(O)c2ccccc2n(C)c1=O	> 10 µM (inactive)
CCc1ccc(/C=c2\s/c(=C\C(=O)C(C)(C)C)[nH]c2=O)cc1	9.29 µM (inactive)
Cc1nc(SCC(=O)Nc2ccc(F)cc2)c(C#N)c(C)c1CC(=O)c1ccc(Br)cc1	> 10 µM (inactive)
Cc1[nH]c2ccccc2c1/C=N/NC(=O)C1CC1(c1ccccc1)c1ccccc1 (stereo not drawn)	> 10 µM (inactive)
Cn1c(=O)c([N+](=O)[O-])c(Cl)c2ccccc21	3.34 µM
Cc1cccc(C(=O)c2cnc3ccccc3c2-c2ccccc2)c1	> 10 µM (inactive)
C=CCn1c(SCC(=O)Nc2ccc(-c3nc4ccc(C)cc4s3)cc2)nnc1-c1ccccc1	9.89 µM (inactive)
O=C(/C=C/c1cccc(C(F)(F)F)c1)Nc1cccc(C(F)(F)F)c1	2.49 µM (inactive)
Fc1ccc(-n2nnnc2-c2cnc(-c3cccs3)nc2C(F)(F)F)cc1	6.67 µM (inactive)
COc1ccc(Cn2c(C)c(C)c(C#N)c2NC(=O)Nc2ccc(Cl)cc2)cc1	7.29 µM (inactive)
Cc1nn(Cc2c(Cl)cccc2Cl)c(C)c1NC(=O)c1cn(-c2ccccc2)nc1-c1ccccc1	4.8 µM
CCOc1ccc(-c2nc(CSCC(=O)NCc3ccco3)c(C)o2)cc1	< 0.16 µM
